Laboratory results: patent US6537744B1, “Use of biomarkers in saliva to evaluate the toxicity of agents and the function of tissues in both biomedical and environmental applications” (priority 1995, dated 2003)
Values joined by “and” are separate entries in the source; they are usually repeats but may differ in a detail not shown here. Identical values can stand only once.

Legend:
[1] = system: carboxylase in human saliva; assay: Inhibition of carboxylase in human saliva (p-nitrophenylvalerate hydrolysis, 400 nm); assay type: biochemical; conditions: for inhibition of carboxylase (in words): human saliva
Experimental: The carboxylase activity in saliva samples is monitored by the hydrolysis of p-nitrophenylvalerate to the readily detectable p-nitrophenol. The concentration of p-nitrophenol in the sample is measured spectrophotometrically at 400 nm, and the value is calculated from p-nitrophenol standard curve (Table 3 and FIG. 4). Values for carboxylase activity in saliva (nmol. min-1 per mL of saliva) are presented in Tables 4-8 and showing in FIG. 5 and FIG. 6. The average specific activity for carboxylase in human saliva is about 47 nmol min^−1 per mL.
The assay for carboxylase consists of 4 mL of tris-HCl buffer (pH 7.0) that contain 25 μL of p-nitrophenylvalerate (13.8 mg/mL of alcohol) and 50-500 μL of human saliva. […] In the inhibition study, the agent is incubated with saliva for about 15-20 minutes before the addition of p-nitrophenylvalerate. Organophosphate concentration is verified by gas chromatography using standard methods as described by Knaak et al. (1993).

[2] = system: acetylcholinesterase in human saliva; assay: Inhibition of acetylcholinesterase in human saliva (acetylthiocholine iodide/DTNB, 405 nm); assay type: biochemical; conditions: for inhibition of acetylcholinesterase (in words): human saliva
Experimental: The hydrolysis of acetylthiocholine iodide (an analog of acetylcholine iodides) by the saliva enzyme or enzymes is measured by generating the yellow 5-thio-2-nitrobenzoate with an absorbance maximum at 405 nm. The rate of change of absorbance is directly proportional to acetylcholinesterase activity. In this procedure, 0.1-1 mL of saliva (3.261 mg protein/mL) is incubated with 100 μL of acetylthiocholine iodide (0.018M) (lot #10H0653 Sigma) for 30-180 minute at 37° C. in 4.0 mL phosphate buffer (pH 7.8). After the incubation, a 0.2 mL of DTNB is added and the sample is read at 405 nm. The enzyme activity is calculated from glutathione standard curve (Table 9 and FIG. 9). Values for AChE activity in human saliva and enzyme kinetics are presented in Tables 10-14 and show in FIG. 10 through FIG. 14.
The AChE specific activity in saliva is about 4 nmol minute^−1 per mL of saliva. […] The percent of enzyme inhibition by organophosphate is calculated and presented in Tables 13-14 and showing in FIG. 15.

[3] = 60 μg/mL, Test #2, 50 μL saliva, 20 min preincubation
[4] = 500 μg/ml, test #1, 200 μL saliva, 15 min preincubation, 37° C.
[5] = 240 μg of isofenphos in 4.0 mL, Test #2, 200 μL saliva, 37° C.
[6] = 22 μg/mL, Test #2, 50 μL saliva, 20 min preincubation
[7] = 29 μg/ml in Tris/Citrate, test #1, 200 μL saliva, 15 min preincubation, 37° C.

CCOP(=S)(NC(C)C)Oc1ccccc1C(=O)OC(C)C (centres unmarked) [Isofenphos, isofenphos]
% Act. [1, 3]: 92%
Absorb. at 400 nm for 65 min. [1, 3]: 2.0 and 1.1
Absorb. at 400 nm for 100 min. [1, 3]: 2.0 and 1.5
% Inhib. [1, 4]: 84%
Absorb. at 400 nm for 20 min. [1, 4]: .33
Absorb. at 400 nm for 60 min. [1, 4]: .75
inhibition of carboxylase (in words) [1]: inhibited
Absorb. at 405 nm for 50 min. [2, 5]: .41
Absorb. at 405 nm for 110 min. [2, 5]: .43
Absorb. at 405 nm for 165 min. [2, 5]: .51
Activity ([2]; 240 μg of isofenphos in 4.0 mL, Test #2, 200 μL saliva, 37° C. (no inhibitor: 1.14)): 1.02 nmol/min
inhibition of acetylcholinesterase (in words) [2]: inhibited

CCOP(=O)(OCC)Oc1ccc([N+](=O)[O-])cc1 [Paraoxon, paraoxon]
% Act. [1, 6]: 40%
Absorb. at 400 nm for 20 min. [1, 6]: .23
Absorb. at 400 nm for 100 min. [1, 6]: .76
% Inhib. [1, 7]: 99%
Absorb. at 400 nm for 20 min. [1, 7]: .03
Absorb. at 400 nm for 60 min. [1, 7]: .14
inhibition of carboxylase (in words) [1]: inhibited
inhibition of acetylcholinesterase (in words) [2]: inhibited
